pIC50: −log10 of the molar value.
Target: Human Factor D (Homo sapiens (Human), UniProt P00746)
Assay: Human Factor D assay
Format: biochemical
Details: Human Factor D 80 nM, substrate Z-L-Lys-SBzl, A405; read-out: IC50 (Stars)
Experimental: The assay of Example 3 was used to determine the IC50's of the compounds. Other standard factor D inhibition assays are also available.
Human Factor D (purified from human serum, Complement Technology, Inc.) at 80 nM final concentration is incubated with test compound at various concentrations for 5 min at room temperature in 50 mM Tris, 1M NaCl, pH 7.5. A synthetic substrate Z-L-Lys-SBzI and DTNB (Ellman's reagent) are added to final concentrations of 100 μM each. Absorbance at 405 nm (A405) is recorded at 30 second intervals for 30 min using a microplate spectrophotometer. IC50 values are calculated by nonlinear regression of complement Factor D reaction rates as a function of test compound concentration.

Chain of Human Factor D (P00746 26-253): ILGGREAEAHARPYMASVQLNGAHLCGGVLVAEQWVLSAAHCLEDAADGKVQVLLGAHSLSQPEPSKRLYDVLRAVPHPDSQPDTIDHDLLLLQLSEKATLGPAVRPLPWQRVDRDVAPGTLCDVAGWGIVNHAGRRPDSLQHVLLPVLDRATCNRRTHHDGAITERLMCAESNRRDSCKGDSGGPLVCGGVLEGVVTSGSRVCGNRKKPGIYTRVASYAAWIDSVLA

| Compound | pIC50 |
| --- | --- |
| CC(=O)c1nn2c3c(cc(-c4cnc(C)nc4)cc13)CCCCCCC(=O)NC[C@@]13C[C@@H](C(=O)Nc4nc(OC(F)(F)F)ccc4C)N(C(=O)C2)[C@@H]1C3 [Compound 1, (4^1R,4^3S,4^5R)-1^3-acetyl-N-(3-methyl-6-(trifluoromethoxy)pyridin-2-yl)-1^5-(2-methylpyrimidin-5-yl)-3,7-dioxo-1^1H-4^2,6-diaza-1(1,7)-indazola-4(2,5)-bicyclo[3.1.0]hexanacyclotridecaphane-4^3-carboxamide] | > 6.00 |
| CC(=O)c1nn2c3c(cc(-c4cnc(C)nc4)cc13)CCCCCCC(=O)NC[C@@]13C[C@@H](C(=O)Nc4nc(Br)ccc4CN4CC(F)C4)N(C(=O)C2)[C@@H]1C3 [Compound 2, (4^1R,4^3S,4^5R)-1^3-acetyl-N-(6-bromo-3-((3-fluoroazetidin-1-yl)methyl)pyridin-2-yl)-1^5-(2-methylpyrimidin-5-yl)-3,7-dioxo-1^1H-4^2,6-diaza-1(1,7)-indazola-4(2,5)-bicyclo[3.1.0]hexanacyclotridecaphane-4^3-carboxamide] | > 6.00 |
| CC(=O)c1nn2c3c(cc(N4CCCC4)cc13)CCCCCCC(=O)NC[C@@]13C[C@@H](C(=O)Nc4nc(C(F)(F)F)ccc4C)N(C(=O)C2)[C@@H]1C3 [Compound 3, (4^1R,4^3S,4^5R)-1^3-acetyl-N-(3-methyl-6-(trifluoromethyl)pyridin-2-yl)-3,7-dioxo-1^5-(pyrrolidin-l-yl)-1^1H-4^2,6-diaza-1(1,7)-indazola-4(2,5)-bicyclo[3.1.0]hexanacyclotridecaphane-4^3-carboxamide] | > 6.00 |
| CC(=O)c1nn2c3c(cc(C4CC4)cc13)CCCCCCC(=O)NC[C@@]13C[C@@H](C(=O)Nc4nc(C(F)(F)F)ccc4C)N(C(=O)C2)[C@@H]1C3 [Compound 4, (4^1R,4^3S,4^5R)-1^3-acetyl-1^5-cyclopropyl-N-(3-methyl-6-(trifluoromethyl)pyridin-2-yl)-3,7-dioxo-1^1H-4^2,6-diaza-1(1,7)-indazola-4(2,5)-bicyclo[3.1.0]hexanacyclotridecaphane-4^3-carboxamide] | > 6.00 |
| CC(=O)c1nn2c3c(cc(-c4nnc(C)o4)cc13)CCCCCCC(=O)NC[C@@]13C[C@@H](C(=O)Nc4nc(C(F)(F)F)ccc4C)N(C(=O)C2)[C@@H]1C3 [Compound 5, (4^1R,4^3S,4^5R)-1^3-acetyl-1^5-(5-methyl-1,3,4-oxadiazol-2-yl)-N-(3-methyl-6-(trifluoromethyl)pyridin-2-yl)-3,7-dioxo-1^1H-4^2,6-diaza-1(1,7)-indazola-4(2,5)-bicyclo[3.1.0]hexanacyclotridecaphane-4^3-carboxamide] | > 6.00 |
| COc1cc2c3c(c1)c(C(C)=O)nn3CC(=O)N1[C@H](C(=O)Nc3nc(C(F)(F)F)ccc3C)C[C@@]3(CNC(=O)CCCCCC2)C[C@@H]13 [Compound 6, (4^1R,4^3S,4^5R)-1^3-acetyl-1^5-methoxy-N-(3-methyl-6-(trifluoromethyl)pyridin-2-yl)-3,7-dioxo-1^1H-4^2,6-diaza-1(1,7)-indazola-4(2,5)-bicyclo[3.1.0]hexanacyclotridecaphane-4^3-carboxamide] | > 6.00 |
| CC(=O)c1nn2c3c(cc(Oc4ncc(C)cn4)cc13)CCCCCC(=O)NC[C@@]13C[C@@H](C(=O)Nc4nc(C(F)(F)F)ccc4C)N(C(=O)C2)[C@@H]1C3 [Compound 7, (4^1R,4^3S,4^5R)-1^3-acetyl-N-(3-methyl-6-(trifluoromethyl)pyridin-2-yl)-1^5-((5-methylpyrimidin-2-yl)oxy)-3,7-dioxo-1^1H-4^2,6-diaza-1(1,7)-indazola-4(2,5)-bicyclo[3.1.0]hexanacyclododecaphane-4^3-carboxamide] | > 6.00 |
| CC(=O)c1nn2c3c(cc(-c4cnc(C)nc4)cc13)CCCCC[C@@H](C)C(=O)NC[C@@]13C[C@@H](C(=O)Nc4nc(C(F)(F)F)ccc4C)N(C(=O)C2)[C@@H]1C3 [Compound 8, (4^1R,4^3S,4^5R,8R)-1^3-acetyl-8-methyl-N-(3-methyl-6-(trifluoromethyl)pyridin-2-yl)-1^5-(2-methylpyrimidin-5-yl)-3,7-dioxo-1^1H-4^2,6-diaza-1(1,7)-indazola-4(2,5)-bicyclo[3.1.0]hexanacyclotridecaphane-4^3-carboxamide] | > 6.00 |
| CC(=O)c1nn2c3c(cc(-c4cnc(C)nc4)cc13)CCCCC[C@@H](C)C(=O)NC[C@@]13C[C@@H](C(=O)Nc4cc(F)cc(Br)n4)N(C(=O)C2)[C@@H]1C3 [Compound 9, (4^1R,4^3S,4^5R,8R)-1^3-acetyl-N-(6-bromo-4-fluoropyridin-2-yl)-8-methyl-1^5-(2-methylpyrimidin-5-yl)-3,7-dioxo-1^1H-4^2,6-diaza-1(1,7)-indazola-4(2,5)-bicyclo[3.1.0]hexanacyclotridecaphane-4^3-carboxamide] | > 6.00 |
| CC(=O)c1nn2c3c(cc(-c4cnc(C)nc4)cc13)CCCCCC(C)(C)C(=O)NC[C@@]13C[C@@H](C(=O)Nc4nc(C(F)(F)F)ccc4C)N(C(=O)C2)[C@@H]1C3 [Compound 10, (4^1R,4^3S,4^5R)-1^3-acetyl-8,8-dimethyl-N-(3-methyl-6-(trifluoromethyl)pyridin-2-yl)-1^5-(2-methylpyrimidin-5-yl)-3,7-dioxo-1^1H-4^2,6-diaza-1(1,7)-indazola-4(2,5)-bicyclo[3.1.0]hexanacyclotridecaphane-4^3-carboxamide] | > 6.00 |
| CC(=O)c1nn2c3c(cc(-c4cnc(C)nc4)cc13)CCCCCCC(=O)NC[C@@]13C[C@@H](C(=O)Nc4nc(C5CC5)ccc4C)N(C(=O)C2)[C@@H]1C3 [Compound 11, (4^1R,4^3S,45^R)-1^3-acetyl-N-(6-cyclopropyl-3-methylpyridin-2-yl)-15-(2-methylpyrimidin-5-yl)-3,7-dioxo-1^1H-4^2,6-diaza-1(1,7)-indazola-4(2,5)-bicyclo[3.1.0]hexanacyclotridecaphane-4^3-carboxamide] | > 6.00 |
| CC(=O)c1nn(CC(=O)N(C)[C@H]2CCCCCCCCCc3ccc(Br)nc3NC2=O)c2ccc(-c3cnc(C)nc3)cc12 [Compound 12, (S)-2-(3-acetyl-5-(2-methylpyrimidin-5-yl)-1H-indazol-1-yl)-N-(2-bromo-15-oxo-5,6,7,8,9,10,11,12,13,14, 15,16-dodecahydropyrido[2,3-b][1]azacyclotetradecin-14-yl)-N-methylacetamide] | 5.00 to 6.00 |
| CC(=O)c1nn2c3c(cc(-c4cnc(C)nc4)cc13)C/C=C/CCCC(=O)N(C)C[C@@]13C[C@@H](C(=O)Nc4cc(F)cc(Br)n4)N(C(=O)C2)[C@@H]1C3 [Compound 13, (4^1R,4^3S,4^5R,E)-1^3-acetyl-N-(6-bromo-4-fluoropyridin-2-yl)-6-methyl-1^5-(2-methylpyrimidin-5-yl)-3,7-dioxo-1^1H-4^2,6-diaza-1(1,7)-indazola-4(2,5)-bicyclo[3.1.0]hexanacyclotridecaphan-11-ene-4^3-carboxamide] | > 6.00 |
| CC(=O)c1nn2c3c(cc(-c4cnc(C)nc4)cc13)CCCCCCC(=O)N(C)C[C@@]13C[C@@H](C(=O)Nc4cc(F)cc(Br)n4)N(C(=O)C2)[C@@H]1C3 [Compound 14, (4^1R,4^3S,4^5R)-1^3-acetyl-N-(6-bromo-4-fluoropyridin-2-yl)-6-methyl-1^5-(2-methylpyrimidin-5-yl)-3,7-dioxo-1^1H-4^2,6-diaza-1(1,7)-indazola-4(2,5)-bicyclo[3.1.0]hexanacyclotridecaphane-4^3-carboxamide] | > 6.00 |
| CC(=O)c1nn2c3c(cc(N)cc13)CCCCCCC(=O)NC[C@@]13C[C@@H](C(=O)Nc4nc(C(F)(F)F)ccc4C)N(C(=O)C2)[C@@H]1C3 [Compound 15, (4^1R,4^3S,4^5R)-1^3-acetyl-1^5-amino-N-(3-methyl-6-(trifluoromethyl)pyridin-2-yl)-3,7-dioxo-1^1H-4^2,6-diaza-1(1,7)-indazola-4(2,5)-bicyclo[3.1.0]hexanacyclotridecaphane-4^3-carboxamide] | > 6.00 |
| CC(=O)c1nn2c3c(cc(-c4cnc(C)nc4)cc13)CCCCC[C@@H](C)C(=O)NC[C@@]13C[C@@H](C(=O)Nc4ccc(F)c(Br)n4)N(C(=O)C2)[C@@H]1C3 [Compound 16, (4^1R,4^3S,4^5R,8R)-1^3-acetyl-N-(6-bromo-5-fluoropyridin-2-yl)-8-methyl-1^5-(2-methylpyrimidin-5-yl)-3,7-dioxo-1^1H-4^2,6-diaza-1(1,7)-indazola-4(2,5)-bicyclo[3.1.0]hexanacyclotridecaphane-4^3-carboxamide] | > 6.00 |
| CC(=O)c1nn2c3c(cc(OCC(C)C)cc13)CCCCCCC(=O)NC[C@@]13C[C@@H](C(=O)Nc4nc(C(F)(F)F)ccc4C)N(C(=O)C2)[C@@H]1C3 [Compound 17, (4^1R,4^3S,4^5R)-1^3-acetyl-1^5-isobutoxy-N-(3-methyl-6-(trifluoromethyl)pyridin-2-yl)-3,7-dioxo-1^1H-4^2,6-diaza-1(1,7)-indazola-4(2,5)-bicyclo[3.1.0]hexanacyclotridecaphane-4^3-carboxamide] | > 6.00 |
| CC(=O)c1nn2c3c(cc(C)cc13)CCCCCCC(=O)NC[C@@]13C[C@@H](C(=O)Nc4nc(C(F)(F)F)ccc4C)N(C(=O)C2)[C@@H]1C3 [Compound 18, (4^1R,4^3S,4^5R)-1^3-acetyl-1^5-methyl-N-(3-methyl-6-(trifluoromethyl)pyridin-2-yl)-3,7-dioxo-1^1H-4^2,6-diaza-1(1,7)-indazola-4(2,5)-bicyclo[3.1.0]hexanacyclotridecaphane-4^3-carboxamide] | > 6.00 |
| CC(=O)c1nn2c3c(cc(OC(C)C)cc13)CCCCCCC(=O)NC[C@@]13C[C@@H](C(=O)Nc4nc(C(F)(F)F)ccc4C)N(C(=O)C2)[C@@H]1C3 [Compound 19, (4^1R,4^3S,4^5R)-1^3-acetyl-1^5-isopropoxy-N-(3-methyl-6-(trifluoromethyl)pyridin-2-yl)-3,7-dioxo-1^1H-4^2,6-diaza-1(1,7)-indazola-4(2,5)-bicyclo[3.1.0]hexanacyclotridecaphane-4^3-carboxamide] | > 6.00 |
